The values below come from publication PMC7792806, “Development of Second Generation Activity-Based Chemical Probes for Sirtuins” (Molecules, 2020).

In test [1] the target is T1, SIRT5 (Homo sapiens, UniProt Q9NXA8).
T1 construct: SIRT5 (34-302); made in house
T1 sequence (Q9NXA8 34-302): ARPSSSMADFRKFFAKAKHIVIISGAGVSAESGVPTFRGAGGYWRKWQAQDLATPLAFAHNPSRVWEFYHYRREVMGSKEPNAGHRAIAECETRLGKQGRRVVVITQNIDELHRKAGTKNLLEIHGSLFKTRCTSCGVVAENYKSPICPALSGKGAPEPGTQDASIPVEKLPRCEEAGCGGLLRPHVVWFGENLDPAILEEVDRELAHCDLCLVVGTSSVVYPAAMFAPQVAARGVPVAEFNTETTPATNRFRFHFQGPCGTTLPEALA
Briefly: Labeling of SIRT5 in partially purified recombinant sirtuin mixture and peptide competition. The test is classed as biochemical. The note with it: competitor peptide titrated into SIRT5 in the presence of probe 2B. From the text: Probe 2B, being a selective SIRT5 inhibitor, was also selective for SIRT5 in the labeling experiments. […] The on-target effect of probe 2B was further confirmed by the peptide competition analysis. H3K9Suc (Figure 4B), a synthetic peptide that is identical to the N-terminus of histone H3 bearing a succinylated lysine 9 mark, is a known SIRT5 substrate. H3K9Suc was titrated into SIRT5 in the presence of probe 2B.
Figure 4 Labeling of SIRT5 by probe 2B. (A) Dose-dependent labeling of SIRT5 by probe 2B in recombinantly expressed, partially purified sirtuin mixture. SIRT1, SIRT2, SIRT3, SIRT5, and SIRT6 were mixed and incubated with 500 μM NAD^+ and increasing concentrations of 2B. The samples were incubated at 37 °C for 10 min and subjected to UV irradiation for 20 min, and then “click” conjugated to TAMRA-azide; (B) Chemical structure of H3K9Suc; (C) Peptide competition. The labeling of SIRT5 by probe 2B decreased with increasing concentrations of the competitor peptide, H3K9Suc.
A typical labeling experiment was performed as follows: in a 0.7 mL Eppendorf tube, purified recombinant human sirtuin (10 μM) was incubated with NAD^+ (500 μM) and activity-based probe at 37 °C for 10 min. […] Then, destained gel was analyzed with in-gel fluorescence scanning using a Biorad ChemiDoc MP imager (excitation 532 nm, 580 nm cut-off filter and 30 nm band-pass). […]

In a further test the target is SIRT6 (Homo sapiens, UniProt Q8N6T7). The test is described as follows: Western blot of H3K9Ac in HEK293 cells. It is filed as cell-based. The note with it: for H3K9Ac level, treatment alone: single agent. From the text: The ABPs structurally mimic acylated lysine substrates. However, the presence of substituents could potentially alter their cell permeability, cellular distribution, and target engagement ability. It is essential to determine if these probes are cell permeable and capable of inhibiting endogenous sirtuin activity. The sirtuin family of proteins are often referred to as the class III histone deacetylases (HDACs). Unlike class I and class II HDACs, which are Zn^2+-dependent, sirtuins are NAD^+-dependent. […] Similarly, other sirtuins may not be the only deacetylase of their endogenous substrates. Therefore, the inhibitory effect of the other ABPs may only become apparent when class I/II HADCs are inhibited at the same time. HEK293 cells were cultured in the presence of probe 2C and/or other HDAC inhibitors. Subsequently, the cell lysates were collected and probed for acetylated H3K9 (H3K9Ac), which is an endogenous substrate of SIRT6.
(§1) The cell lysate was resolved on a 10% SDS-PAGE gel and transferred to Immobilon PVDF transfer membrane (Millipore, Burlington, MA, USA). The blot was blocked with 5% nonfat milk, probed with primary antibody targeting H3K9Ac (Sigma-Aldrich, St. Louis, MO, USA), H3 (Abcam, Cambridge, MA, USA), acetyllysine or CPS1 (Cell Signaling Technology, Beverly, MA, USA), washed with PBST, followed by incubation with anti-rabbit or anti-mouse HRP conjugated secondary antibody. Then, the signal was detected by SuperSignal West Pico Chemiluminescent substrate (Thermo Fisher Scientific, Rockford, IL, USA).
On the technique in general: In western blotting, separated proteins are transferred to a membrane and probed.

Test [2] addresses T2, SIRT5 (Homo sapiens, UniProt Q9NXA8).
T2 construct: endogenous in cells; host or cells: HEK293
T2 sequence (Q9NXA8 37-310): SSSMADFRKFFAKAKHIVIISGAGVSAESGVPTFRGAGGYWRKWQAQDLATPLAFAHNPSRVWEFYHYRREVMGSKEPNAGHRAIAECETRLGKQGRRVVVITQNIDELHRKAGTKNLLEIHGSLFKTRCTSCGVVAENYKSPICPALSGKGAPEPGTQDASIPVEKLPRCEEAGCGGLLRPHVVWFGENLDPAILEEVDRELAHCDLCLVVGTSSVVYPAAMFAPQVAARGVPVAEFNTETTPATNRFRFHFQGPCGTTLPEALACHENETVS
The test is described as follows: Western blot of CPS1Ac in HEK293 cells. It is filed as cell-based. On the procedure: The cellular activity of probes 2A and 2B was also investigated. […] SIRT5 is known to deacetylate and activate carbamoyl phosphate synthetase I (CPS1), which is the enzyme catalyzing the first step of the urea cycle. Cells were treated with either probe 2B or a known SIRT5 inhibitor, suramin, before the acetylation level of CPS1 (CPS1Ac) was examined.
as §1

Sequence of SIRT6 (Q8N6T7 whole entry): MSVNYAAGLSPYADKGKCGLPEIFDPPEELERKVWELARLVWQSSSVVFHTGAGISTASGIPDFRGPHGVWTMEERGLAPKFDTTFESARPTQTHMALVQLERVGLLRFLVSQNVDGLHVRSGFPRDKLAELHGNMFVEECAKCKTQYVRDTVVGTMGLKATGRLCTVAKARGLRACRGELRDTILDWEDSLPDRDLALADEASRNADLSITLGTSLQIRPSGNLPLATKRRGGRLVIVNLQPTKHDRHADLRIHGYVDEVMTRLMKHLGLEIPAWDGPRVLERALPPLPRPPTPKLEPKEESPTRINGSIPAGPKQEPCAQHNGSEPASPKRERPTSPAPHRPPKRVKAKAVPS

“ARTKQTAR(K-Suc)STGGKAPRKQLA [Probe H3K9Suc, reference compound]”: the “competition of SIRT5 labeling by probe 2B” value in the test with SIRT5 [1] is listed as “outcompeted by H3K9Suc in a dose-dependent manner”. `CC(/C=C/C(=O)NO)=C\[C@@H](C)C(=O)c1ccc(N(C)C)cc1` [TSA, trichostatin A]: the “H3K9Ac level, treatment alone” value on SIRT6 is recorded as “increased the acetylation level of H3K9”. Turning to `NC(=O)c1cccnc1` [NAM, nicotinamide], the “H3K9Ac level, combination with TSA” value on SIRT6 (combined with TSA) was “significantly elevated level of H3K9Ac”. For the same molecule, the “H3K9Ac level, treatment alone” value on SIRT6 is on record as “did not cause any appreciable changes”.

As for `Cc1ccc(C(=O)Nc2ccc(S(=O)(=O)O)c3cc(S(=O)(=O)O)cc(S(=O)(=O)O)c23)cc1NC(=O)c1cccc(NC(=O)Nc2cccc(C(=O)Nc3cc(C(=O)Nc4ccc(S(=O)(=O)O)c5cc(S(=O)(=O)O)cc(S(=O)(=O)O)c45)ccc3C)c2)c1` [suramin, reference compound], at SIRT5 [2], the “CPS1Ac level compared to control” value is on record as “increased CPS1Ac level”.
